Entries after “also recorded” stand apart in the source; their conditions may differ. Read-outs that look alike come from different tables or passages of the source.

This is an account of results in paper PMC8234143, “Synthesis and Antiviral Evaluation of Nucleoside Analogues Bearing One Pyrimidine Moiety and Two D-Ribofuranosyl Residues” (Molecules, 2021).

Data set [1] has as its system A/Puerto Rico/8/34 (H1N1) influenza virus. Briefly: Antiviral (cytoprotection, MTT) assay against influenza virus in MDCK cells. Format: cell-based. Particulars: for SI: CC50/IC50 ratio, influenza H1N1 / MDCK; for IC50: 48 h.
Data set [2] concerns Coxsackie B3 virus. Briefly: Antiviral (cytoprotection, MTT) assay against Coxsackie B3 virus in Vero cells. Particulars: for SI: CC50/IC50 ratio, Coxsackie B3 / Vero; for IC50: Enterovirus B, B3, Vero, 48 h, 50% inhibition of virus replication, Vero cells. Format: cell-based, coxsackievirus B3.
Data set [3] in a line: in vitro. Conditions: dog.
Data set [4] in a line: in vitro. Particulars: African green monkey, CC50, Vero cells, MTT; concentration causing 50% cell death.
Data set [5] deals with A/Puerto Rico/8/34 (H1N1) influenza virus. Also on record: method as in PMID 32930935. Particulars: cited from earlier work; for IC50: 50% inhibition of virus replication, MDCK cells, earlier published compounds; for SI: CC50/IC50 ratio, influenza H1N1 / MDCK.
For data set [6], the system named is Coxsackie B3 virus. Also on record: method as in PMID 32930935. Conditions: cited from earlier work; for IC50: 50% inhibition of virus replication, Vero cells; for SI: CC50/IC50 ratio, Coxsackie B3 / Vero.
[7] abbreviates: Influenza A virus, H1N1, MDCK, 50% inhibition of virus replication, MDCK cells, read-out: IC50.
Setting [8] is: 50% inhibition of virus replication, MDCK cells, read-out: IC50.

`Cc1cc(=O)n(Cc2cn(C3OC(CO)C(O)C3O)nn2)c(=O)n1Cc1cn(C2OC(CO)C(O)C2O)nn1` (stereo not shown) [Compound 2g]: the SI (in data set [1]; with Coxsackie B3 virus [2]) was 1 throughout. In addition, the IC50 (commonly the point on the concentration scale where inhibition reaches its midpoint) in data set [1] (Influenza A virus, H1N1, MDCK) is above 543 µM; in data set [1] (setting [7]), above 100 µM; with Coxsackie B3 virus [2] it was above 543 µM. Moreover, the “antiviral activity against influenza virus A H1N1 (in words)” value (shortened to “antiviral activity”) in data set [1] (MDCK cells) was “did not demonstrate antiviral activity”. Also, the CC50 in “in vitro [3]” and in the data set “in vitro [4]” was above 543 µM in each case.

Take `Cc1cc(=O)n(CCCc2cn(C3OC(CO)C(O)C3O)nn2)c(=O)n1CCCc1cn(C2OC(CO)C(O)C2O)nn1` (stereo not shown) [Compound 2h]: the SI (in data set [1]; in the data set on Coxsackie B3 virus [2]) was 1 in each case. Further, the IC50 in data set [1] (Influenza A virus, H1N1, MDCK) was above 493 µM; in data set [1] (setting [7]), above 100 µM; with Coxsackie B3 virus [2], above 493 µM. Besides, the CC50 in “in vitro [3]” and in “in vitro [4]” was above 493 µM in each case.

For the compound `Cc1cc(=O)[nH]c(=O)n1CCCCc1cn([C@@H]2O[C@H](CO)[C@@H](O)[C@H]2O)nn1` [Compound 2m], in data set [5], the IC50 is 48 ± 6 µM and the SI was 6 ^4. In the data set on Coxsackie B3 virus [6], the IC50 was 106 ± 11 µM and the SI is reported as 6 ^4,3.

Consider `CC(=O)OCC1OC(n2cc(CCCCn3c(=O)c4ccccc4n(CCCCc4cn(C5OC(COC(C)=O)C(OC(C)=O)C5OC(C)=O)nn4)c3=O)nn2)C(OC(C)=O)C1OC(C)=O` (stereo not shown) [Compound 4f], for which the SI in data set [1] was 3. Besides, the IC50 in data set [1] (setting [7]) was 104 ± 15.1 µM. In addition, the “antiviral activity” value in data set [1] (MDCK cells) was “inactive”. The compound further gave a CC50 in the data set “in vitro [3]” above 324 µM.

As to `O=c1c2ccccc2n(Cc2cn(C3OC(CO)C(O)C3O)nn2)c(=O)n1Cc1cn(C2OC(CO)C(O)C2O)nn1` (stereo not shown) [Compound 4g], the IC50 in data set [1] (setting [8]) is 180 ± 19.9 µM; in data set [1] (setting [7]) it was above 100 µM; with Coxsackie B3 virus [2], above 170 µM. The SI in data set [1] came out at 3; in the data set on Coxsackie B3 virus [2], 2. The CC50 in “in vitro [3]” is above 510 µM; in the data set “in vitro [4]”, 381 ± 26.1 µM.

As for `O=c1c2ccccc2n(CCCc2cn(C3OC(CO)C(O)C3O)nn2)c(=O)n1CCCc1cn(C2OC(CO)C(O)C2O)nn1` (stereo not shown) [Compound 4h], the IC50 in data set [1] (setting [8]) is 186 ± 21.6 µM; in data set [1] (setting [7]) it was above 100 µM; in the data set with Coxsackie B3 virus [2], above 465 µM. Also, the SI in data set [1] is on record as 3; in the data set with Coxsackie B3 virus [2], 1. Also, the “antiviral activity” value in data set [1] (MDCK cells) is “did not demonstrate antiviral activity”. The CC50 in “in vitro [3]” and in “in vitro [4]” was above 465 µM each time.

As for `O=c1[nH]c(=O)n(Cc2cn([C@@H]3O[C@H](CO)[C@@H](O)[C@H]3O)nn2)c2ccccc12` [Compound 4j], the half-inhibitory concentration (IC50) in data set [5] is 42 ± 5 µM; in the data set with Coxsackie B3 virus [6], 133 ± 15 µM. In addition, the SI in data set [5] is given as 3; in the data set on Coxsackie B3 virus [6] it was 1 ^4.

Take `CC(=O)OCC1OC(n2cc(CCCc3c(C)[nH]c(=O)n(CCCc4cn(C5OC(COC(C)=O)C(OC(C)=O)C5OC(C)=O)nn4)c3=O)nn2)C(OC(C)=O)C1OC(C)=O` (stereo not shown) [Compound 11c]: the SI in data set [1] was found to be 12. Also, in data set [1] (setting [7]), the concentration for half-maximal inhibition (IC50) is 29.2 ± 4.3 µM. The compound further returned a CC50 in “in vitro [3]” above 349 µM.

Turning to `CC(=O)OCC1OC(n2cc(CCCCc3c(C)[nH]c(=O)n(CCCCc4cn(C5OC(COC(C)=O)C(OC(C)=O)C5OC(C)=O)nn4)c3=O)nn2)C(OC(C)=O)C1OC(C)=O` (stereo not shown) [Compound 11d], the SI in data set [1] is given as 3. The half-maximal inhibitory concentration (IC50) in data set [1] (setting [7]) turned out to be 119 ± 8.7 µM. In addition, the “antiviral activity” value in data set [1] (MDCK cells) is “did not demonstrate antiviral activity; also recorded: inactive”. The same compound gave a CC50 in “in vitro [3]” above 338 µM.

On to `CCC(CC)O[C@@H]1C=C(C(=O)O)C[C@H](N)[C@H]1NC(C)=O` [Oseltamivir carboxylate, reference compound], for which, in data set [1], the SI is recorded as above 667. Also, in data set [1] (Influenza A virus, H1N1, MDCK), the concentration for half-maximal inhibition (IC50) stood at 0.3 ± 0.06 µM. In addition, the CC50 in “in vitro [3]” was above 200 µM.

`Cc1cc(CCCOc2c(C)cc(-c3noc(C(F)(F)F)n3)cc2C)on1` [Pleconaril, reference compound]: in the data set on Coxsackie B3 virus [2], the SI is 46 and the IC50 was determined as 21.6 µM. Besides, the CC50 in the data set “in vitro [4]” is above 1000 µM.

Take `CC(N)C12CC3CC(CC(C3)C1)C2` (stereo not shown) [Rimantadine, reference compound]: the SI in data set [1] was found to be 4. In addition, in data set [1] (Influenza A virus, H1N1, MDCK), the IC50 is 77 ± 8 µM. Also, the CC50 in “in vitro [3]” came to 340 ± 16 µM.
